# Conditions: Cohort 2 200 mg BID
# Experimental: All responses were assessed by the investigators.
# Reported Adverse Events. […] All-cause mortality data collected during the study were assessed for all enrolled participants. Disease progression related death was not reported as AE.
# Number of Participants With Treatment-emergent Adverse Events (TEAEs), and Treatment-emergent Serious Adverse Events (TESAEs). […] TEAEs included both SAEs and non-SAEs. […] Analysis was performed on safety population which included all participants who received at least 1 dose of study medication.
smiles,measurement,value
"CC(C)NC(=O)COc1cccc(-c2nc(Nc3ccc4[nH]ncc4c3)c3ccccc3n2)c1 [Belumosudil, 2-{3-[4-(1H-indazol-5-ylamino)-2-quinazolinyl]phenoxy}-N-(propan-2-yl) acetamide]",Oedema: # Events,1
same,Oedema: Affected/At Risk,1/16
same,Oedema: Affected/At Risk (%),(6.25%)
same,Oesophageal ulcer: # Events,1
same,Oesophageal ulcer: Affected/At Risk,1/16
same,Oesophageal ulcer: Affected/At Risk (%),(6.25%)
same,Oral candidiasis: # Events,1
same,Oral candidiasis: Affected/At Risk,1/16
same,Oral candidiasis: Affected/At Risk (%),(6.25%)
same,Oropharyngeal pain: # Events,0
same,Oropharyngeal pain: Affected/At Risk,0/16
same,Oropharyngeal pain: Affected/At Risk (%),(0%)
same,Orthopnoea: # Events,0
same,Orthopnoea: Affected/At Risk,0/16
same,Orthopnoea: Affected/At Risk (%),(0%)
same,Osteonecrosis: # Events,0
same,Osteonecrosis: Affected/At Risk,0/16
same,Osteonecrosis: Affected/At Risk (%),(0%)
same,Osteopenia: # Events,1
same,Osteopenia: Affected/At Risk,1/16
same,Osteopenia: Affected/At Risk (%),(6.25%)
same,Osteoporosis: # Events,1
same,Osteoporosis: Affected/At Risk,1/16
same,Osteoporosis: Affected/At Risk (%),(6.25%)
same,Overdose: # Events,0
same,Overdose: Affected/At Risk,0/16
same,Overdose: Affected/At Risk (%),(0%)
same,Pain in extremity: # Events,3
same,Pain in extremity: Affected/At Risk,2/16
same,Pain in extremity: Affected/At Risk (%),(12.5%)
same,Pain: # Events,0
same,Pain: Affected/At Risk,0/16
same,Pain: Affected/At Risk (%),(0%)
same,Palpitations: # Events,0
same,Palpitations: Affected/At Risk,0/16
same,Palpitations: Affected/At Risk (%),(0%)
same,Paraesthesia: # Events,1
same,Paraesthesia: Affected/At Risk,1/16
same,Paraesthesia: Affected/At Risk (%),(6.25%)
same,Participants with TEAE,16 (100%) participants
same,Participants with TESAE,6 (38%) participants
same,Pericardial effusion: # Events,0
same,Pericardial effusion: Affected/At Risk,0/16
same,Pericardial effusion: Affected/At Risk (%),(0%)
same,Peripheral coldness: # Events,0
same,Peripheral coldness: Affected/At Risk,0/16
same,Peripheral coldness: Affected/At Risk (%),(0%)
same,Peripheral sensory neuropathy: # Events,1
same,Peripheral sensory neuropathy: Affected/At Risk,1/16
same,Peripheral sensory neuropathy: Affected/At Risk (%),(6.25%)
same,Phlebitis: # Events,1
same,Phlebitis: Affected/At Risk,1/16
same,Phlebitis: Affected/At Risk (%),(6.25%)
same,Photophobia: # Events,1
same,Photophobia: Affected/At Risk,1/16
same,Photophobia: Affected/At Risk (%),(6.25%)
same,Platelet count decreased: # Events,0
same,Platelet count decreased: Affected/At Risk,0/16
same,Platelet count decreased: Affected/At Risk (%),(0%)
same,Pleural effusion: # Events,0
same,Pleural effusion: Affected/At Risk,0/16
same,Pleural effusion: Affected/At Risk (%),(0%)
same,Pneumonia respiratory syncytial viral: # Events,1
same,Pneumonia respiratory syncytial viral: Affected/At Risk,1/16
same,Pneumonia respiratory syncytial viral: Affected/At Risk (%),(6.25%)
same,Pneumonia: # Events,3
same,Pneumonia: Affected/At Risk,3/16
same,Pneumonia: Affected/At Risk (%),(18.75%)
same,Pollakiuria: # Events,0
same,Pollakiuria: Affected/At Risk,0/16
same,Pollakiuria: Affected/At Risk (%),(0%)
same,Presyncope: # Events,3
same,Presyncope: Affected/At Risk,3/16
same,Presyncope: Affected/At Risk (%),(18.75%)
same,Productive cough: # Events,7
same,Productive cough: Affected/At Risk,2/16
same,Productive cough: Affected/At Risk (%),(12.5%)
same,Proteinuria: # Events,1
same,Proteinuria: Affected/At Risk,1/16
same,Proteinuria: Affected/At Risk (%),(6.25%)
same,Pruritus: # Events,4
same,Pruritus: Affected/At Risk,2/16
same,Pruritus: Affected/At Risk (%),(12.5%)
same,Pseudomonas infection: # Events,2
same,Pseudomonas infection: Affected/At Risk,1/16
same,Pseudomonas infection: Affected/At Risk (%),(6.25%)
same,Pulmonary mass: # Events,1
same,Pulmonary mass: Affected/At Risk,1/16
same,Pulmonary mass: Affected/At Risk (%),(6.25%)
same,Pyrexia: # Events,6
same,Pyrexia: Affected/At Risk,3/16
same,Pyrexia: Affected/At Risk (%),(18.75%)
same,Rash erythematous: # Events,1
same,Rash erythematous: Affected/At Risk,1/16
same,Rash erythematous: Affected/At Risk (%),(6.25%)
same,Rash maculo-papular: # Events,0
same,Rash maculo-papular: Affected/At Risk,0/16
same,Rash maculo-papular: Affected/At Risk (%),(0%)
same,Rash pustular: # Events,1
same,Rash pustular: Affected/At Risk,1/16
same,Rash pustular: Affected/At Risk (%),(6.25%)
same,Rash: # Events,1
same,Rash: Affected/At Risk,1/16
same,Rash: Affected/At Risk (%),(6.25%)
same,Red blood cells urine positive: # Events,1
same,Red blood cells urine positive: Affected/At Risk,1/16
same,Red blood cells urine positive: Affected/At Risk (%),(6.25%)
same,Renal failure: # Events,1
same,Renal failure: Affected/At Risk,1/16
same,Renal failure: Affected/At Risk (%),(6.25%)
same,Respiratory syncytial virus infection: # Events,1
same,Respiratory syncytial virus infection: Affected/At Risk,1/16
same,Respiratory syncytial virus infection: Affected/At Risk (%),(6.25%)
same,Respiratory tract infection fungal: # Events,0
same,Respiratory tract infection fungal: Affected/At Risk,0/16
same,Respiratory tract infection fungal: Affected/At Risk (%),(0%)
same,Respiratory tract infection: # Events,0
same,Respiratory tract infection: Affected/At Risk,0/16
same,Respiratory tract infection: Affected/At Risk (%),(0%)
same,Restless legs syndrome: # Events,1
same,Restless legs syndrome: Affected/At Risk,1/16
same,Restless legs syndrome: Affected/At Risk (%),(6.25%)
same,Rosacea: # Events,1
same,Rosacea: Affected/At Risk,1/16
same,Rosacea: Affected/At Risk (%),(6.25%)
same,"SAE Abdominal wall haematoma, # events",0
same,"SAE Abdominal wall haematoma, affected/at risk",0/16
same,"SAE Acute kidney injury, # events",1
same,"SAE Acute kidney injury, affected/at risk",1/16
same,"SAE Acute lymphocytic leukaemia recurrent, # events",0
same,"SAE Acute lymphocytic leukaemia recurrent, affected/at risk",0/16
same,"SAE Acute respiratory failure, # events",0
same,"SAE Acute respiratory failure, affected/at risk",0/16
same,"SAE Anaphylactic reaction, # events",0
same,"SAE Anaphylactic reaction, affected/at risk",0/16
same,"SAE Bacteraemia, # events",1
same,"SAE Bacteraemia, affected/at risk",1/16
same,"SAE Cardiac arrest, # events",0
same,"SAE Cardiac arrest, affected/at risk",0/16
same,"SAE Cellulitis, # events",1
same,"SAE Cellulitis, affected/at risk",1/16
same,"SAE Chronic graft versus host disease in skin, # events",1
same,"SAE Chronic graft versus host disease in skin, affected/at risk",1/16
same,"SAE Citrobacter infection, # events",1
same,"SAE Citrobacter infection, affected/at risk",1/16
same,"SAE Dyspnoea, # events",1
same,"SAE Dyspnoea, affected/at risk",1/16
same,"SAE Embolism, # events",1
same,"SAE Embolism, affected/at risk",1/16
same,"SAE Febrile neutropenia, # events",0
same,"SAE Febrile neutropenia, affected/at risk",0/16
same,"SAE Graft versus host disease in lung, # events",0
same,"SAE Graft versus host disease in lung, affected/at risk",0/16
same,"SAE Hypoxia, # events",0
same,"SAE Hypoxia, affected/at risk",0/16
same,"SAE Influenza A virus test positive, # events",0
same,"SAE Influenza A virus test positive, affected/at risk",0/16
same,"SAE Influenza like illness, # events",0
same,"SAE Influenza like illness, affected/at risk",0/16
same,"SAE Lacunar infarction, # events",1
same,"SAE Lacunar infarction, affected/at risk",1/16
same,"SAE Leukaemia recurrent, # events",0
same,"SAE Leukaemia recurrent, affected/at risk",0/16
same,"SAE Lipomatosis, # events",0
same,"SAE Lipomatosis, affected/at risk",0/16
same,"SAE Metastases to meninges, # events",0
same,"SAE Metastases to meninges, affected/at risk",0/16
same,"SAE Muscular weakness, # events",1
same,"SAE Muscular weakness, affected/at risk",1/16
same,"SAE Myelodysplastic syndrome, # events",0
same,"SAE Myelodysplastic syndrome, affected/at risk",0/16
same,"SAE Non-cardiac chest pain, # events",2
same,"SAE Non-cardiac chest pain, affected/at risk",1/16
same,"SAE Obliterative bronchiolitis, # events",0
same,"SAE Obliterative bronchiolitis, affected/at risk",0/16
same,"SAE Pericardial effusion, # events",0
same,"SAE Pericardial effusion, affected/at risk",0/16
same,"SAE Pleural effusion, # events",0
same,"SAE Pleural effusion, affected/at risk",0/16
same,"SAE Pneumonia viral, # events",0
same,"SAE Pneumonia viral, affected/at risk",0/16
same,"SAE Pneumonia, # events",1
same,"SAE Pneumonia, affected/at risk",1/16
same,"SAE Pregnancy of partner, # events",0
same,"SAE Pregnancy of partner, affected/at risk",0/16
same,"SAE Proteinuria, # events",0
same,"SAE Proteinuria, affected/at risk",0/16
same,"SAE Respirovirus test positive, # events",1
same,"SAE Respirovirus test positive, affected/at risk",1/16
same,"SAE Small intestinal obstruction, # events",0
same,"SAE Small intestinal obstruction, affected/at risk",0/16
same,"SAE Stenotrophomonas infection, # events",1
same,"SAE Stenotrophomonas infection, affected/at risk",1/16
same,"SAE Urinary retention, # events",0
same,"SAE Urinary retention, affected/at risk",0/16
same,"SAE Urinary tract infection, # events",1
same,"SAE Urinary tract infection, affected/at risk",1/16
same,"SAE Varicella zoster virus infection, # events",0
same,"SAE Varicella zoster virus infection, affected/at risk",0/16
same,"SAE total, affected/at risk",6/16
same,Sinus pain: # Events,0
same,Sinus pain: Affected/At Risk,0/16
same,Sinus pain: Affected/At Risk (%),(0%)
same,Sinusitis: # Events,4
same,Sinusitis: Affected/At Risk,2/16
same,Sinusitis: Affected/At Risk (%),(12.5%)
same,Skin abrasion: # Events,0
same,Skin abrasion: Affected/At Risk,0/16
same,Skin abrasion: Affected/At Risk (%),(0%)
same,Skin lesion: # Events,1
same,Skin lesion: Affected/At Risk,1/16
same,Skin lesion: Affected/At Risk (%),(6.25%)
same,Skin papilloma: # Events,0
same,Skin papilloma: Affected/At Risk,0/16
same,Skin papilloma: Affected/At Risk (%),(0%)
same,Spinal compression fracture: # Events,0
same,Spinal compression fracture: Affected/At Risk,0/16
same,Spinal compression fracture: Affected/At Risk (%),(0%)
same,Squamous cell carcinoma of skin: # Events,2
same,Squamous cell carcinoma of skin: Affected/At Risk,2/16
same,Squamous cell carcinoma of skin: Affected/At Risk (%),(12.5%)
same,Stomatitis: # Events,1
same,Stomatitis: Affected/At Risk,1/16
same,Stomatitis: Affected/At Risk (%),(6.25%)
same,Superior vena cava syndrome: # Events,2
same,Superior vena cava syndrome: Affected/At Risk,1/16
same,Superior vena cava syndrome: Affected/At Risk (%),(6.25%)
same,Tachycardia: # Events,0
same,Tachycardia: Affected/At Risk,0/16
same,Tachycardia: Affected/At Risk (%),(0%)
same,Tendonitis: # Events,1
same,Tendonitis: Affected/At Risk,1/16
same,Tendonitis: Affected/At Risk (%),(6.25%)
same,Testicular pain: # Events,0
same,Testicular pain: Affected/At Risk,0/16
same,Testicular pain: Affected/At Risk (%),(0%)
same,Testicular swelling: # Events,0
same,Testicular swelling: Affected/At Risk,0/16
same,Testicular swelling: Affected/At Risk (%),(0%)
same,Thoracic spinal stenosis: # Events,0
same,Thoracic spinal stenosis: Affected/At Risk,0/16
same,Thoracic spinal stenosis: Affected/At Risk (%),(0%)
same,Thrombocytopenia: # Events,1
same,Thrombocytopenia: Affected/At Risk,1/16
same,Thrombocytopenia: Affected/At Risk (%),(6.25%)
same,Thrombocytosis: # Events,0
same,Thrombocytosis: Affected/At Risk,0/16
same,Thrombocytosis: Affected/At Risk (%),(0%)
same,Tinea pedis: # Events,1
same,Tinea pedis: Affected/At Risk,1/16
same,Tinea pedis: Affected/At Risk (%),(6.25%)
same,Tooth fracture: # Events,1
same,Tooth fracture: Affected/At Risk,1/16
same,Tooth fracture: Affected/At Risk (%),(6.25%)
same,Total Other Adverse Events: Affected/At Risk,16/16
same,Total Other Adverse Events: Affected/At Risk (%),(100%)
same,Transfusion reaction: # Events,0
same,Transfusion reaction: Affected/At Risk,0/16
same,Transfusion reaction: Affected/At Risk (%),(0%)
same,Tremor: # Events,2
same,Tremor: Affected/At Risk,1/16
same,Tremor: Affected/At Risk (%),(6.25%)
same,Type 2 diabetes mellitus: # Events,0
same,Type 2 diabetes mellitus: Affected/At Risk,0/16
same,Type 2 diabetes mellitus: Affected/At Risk (%),(0%)
same,Ulcerative keratitis: # Events,1
same,Ulcerative keratitis: Affected/At Risk,1/16
same,Ulcerative keratitis: Affected/At Risk (%),(6.25%)
same,Upper respiratory tract infection: # Events,13
same,Upper respiratory tract infection: Affected/At Risk,9/16
same,Upper respiratory tract infection: Affected/At Risk (%),(56.25%)
same,Upper-airway cough syndrome: # Events,2
same,Upper-airway cough syndrome: Affected/At Risk,2/16
same,Upper-airway cough syndrome: Affected/At Risk (%),(12.5%)

# — US20250255867A1 (Kadmon Corporation, LLC, priority 2022, published 2025)
